According to patent US8663646B2, “P53 peptide vaccine” (priority 2007, dated 2014):

Experiments:
HLA-A*0201 = HLA-A*0201 (Homo sapiens, UniProt P04439, D140Y/D185E/D98H/E176V/E277Q/G131W/G231S/I119V/I121R/I166T/I218V/L300P/L318F/N151K/N90K/P208A/P217A/Q86G/Q94H/R138H/R169H/T345S); test: Peptide stabilization for HLA-A*0201; assay type: binding
[1] = target: T1, 20S immuno-proteasomes from mouse B-cell line (RMA) (Mus musculus, UniProt O35955+P28063+P28076); test: In vitro proteasome mediated digestion of 30-mers, mass spectrometry, immunoproteasome RMA; assay type: biochemical; conditions: 30 residue long precursor peptides
T1 construct: 20S immuno-proteasomes were purified from a mouse B-cell line (RMA); endogenous in cells; host or cells: RMA cells; 20S proteasome purified from them
Protocol: (§1) In the context of the invention, “being inefficiently processed by a proteasome” preferably means that within the first hour of digestion by a proteasome less than 1% of total digested peptide is found. The processing by a proteasome is preferably assessed by incubating a purified proteasome, more preferably a human proteasome with a peptide comprising the potential CTL epitope (30 amino acid length approximately) in a proteasome digestion buffer during at least one hour at 37° C. The reaction is subsequently stopped by adding trifluoroacetic acid. Analysis of the digested peptides is performed with electrospray ionization mass spectrometry (see example 1). Even more preferably, the human proteasome is an immunoproteasome from B-LCL JY cells (Kessler J H et al. 2001).
(§2) 20S immuno-proteasomes were purified from a mouse B-cell line (RMA) and a human B-LCL cell line (JY) and 20S household proteasomes were purified from human tumor cell line (HeLa) as described (Kessler J H et al 2001). To assess kinetics, digestions were performed with different incubation periods as indicated. Briefly, peptides containing the (potential) CTL epitopes (30 mers, 20 μg) were incubated with 1 μg of purified proteasome at 37° C. for 1 h, 4 h and 24 h in 300 μl proteasome digestion buffer, trifluoroacetic acid (30 μl) was added to stop the digestion and samples were stored at −20° C. before mass spectrometric analysis. Electrospray ionization mass spectrometry was performed on a hybrid quadrupole time-of-flight mass spectromter, a Q-TOF (Micromass), equipped with an on-line nanoelectrospray interface with an approximate flow rate of […] as described (Kessler J H et al 2001). The peaks in the mass spectrum were searched in the digested precursor peptide using the Biolynx/proteins software (Micromass) supplied with the mass spectrometer. The intensity of the peaks in the mass spectra was used to establish the relative amounts of peptides generated after proteasome digestion. The relative amounts of the peptides are given as a percentage of the total amount of peptide digested by the proteasome at the indicated incubation time. Major cleavage sites are defined as more than >1% of total digested peptide within the first hour.

[2] = target: T2, 20S immuno-proteasomes from human B-LCL cell line (JY) (Homo sapiens, UniProt P28062+P28065+P40306); test: In vitro proteasome mediated digestion of 30-mers, mass spectrometry, immunoproteasome JY; assay type: biochemical; conditions: 30 residue long precursor peptides
T2 construct: purified from a mouse B-cell line (RMA) and a human B-LCL cell line (JY); endogenous in cells; host or cells: B-LCL JY cells; 20S proteasome purified from them
Protocol: as §1, §2

[3] = target: T3, 20S household proteasomes from human tumor cell line (HeLa) (Homo sapiens, UniProt P28072+P28074+Q99436); test: In vitro proteasome mediated digestion of 30-mers, mass spectrometry, household proteasome HeLa; assay type: biochemical; conditions: 30 residue long precursor peptides
T3 construct: 20S household proteasomes were purified from human tumor cell line (HeLa); endogenous in cells; host or cells: HeLa cells; 20S proteasome purified from them
Protocol: as §1, §2

HLA-A*2401 [4] = test: Competition based cellular binding assay, HLA-A*2401 (B-cell line VIJF); parameters: species or system human; conditions: for Peptide Binding Affinity: HLA-A*2401, IC50 category
HLA-A*2401 [5] = test: Stability of peptide-HLA complex, binding at 4° C. and 20° C., HLA-A*2401; parameters: species or system human; conditions: for Peptide Binding Stability: HLA-A*2401, IC50 at 20° C. vs 4° C.
Protocol: Stability of other peptide-HLA complexes was preferably determined as follows. […] Peptides of >50% of the initial complexes was lost within 2 hours were considered unstable. […] The rest was designated as unstable peptide binding.
Peptides 8-11 residues in length were selected based on typical anchor residues for HLA-A*0101, A*0301, A*1101 and HLA-A*2401 (Rammensee H G et al). The capacity of peptides to bind was tested in a competition based cellular binding assay as previously described (van der Burg S H et al 1995). FL-labeled reference peptides were synthesized as Cys-derivative (van der Burg S H et al 1995). Fluorescence labeled reference peptides used were: YLEPAC(FL)AK (SEQ ID NO: 87) (HLA-A*0101) and KVFPC(FL)ALINK (SEQ ID NO: 88) (HLA-A*1101) (Sette A et al), KVFPC(FL)ALINK (SEQ ID NO: 89) (HLAA*0301) (van der Burg S H et al 1995) and RYLKC(FL)QQLL (SEQ ID NO: 90) (A*2401) (Dai L C et al). B-cell lines used are: CAA (A*0101), EKR (A*0301), BVR (A*1101), VIJF (A*2401). The relative binding capacity of the peptides is expressed as the peptide concentration to inhibit 50% (1050) of the binding of the reference peptide. […] Peptide stabilization for HLA-A*0201 was performed as previously described (van der Burg S H et al, 1996). Peptides of >50% of the initial complexes was lost within 2 hours were considered unstable. Stability of other peptide-HLA complexes was determined as follows. Peptide binding was performed at 4° C. and 20° C. and 1050 were determined. […] The rest was designated as unstable peptide binding.

HLA-A*0101 = target: T4, HLA-A*0101 (Homo sapiens, UniProt P04439, A114D/A174V/A182V/D101N/D185E/E176A/E190D/L180R/Q94H/R68K/S129P/T187R/V100A/V91M/W191G); test: Stability of peptide-HLA complex, binding at 4° C. and 20° C., HLA-A*0101
T4 construct: B-cell lines used are: CAA (A*0101), EKR (A*0301), BVR (A*1101), VIJF (A*2401); endogenous in cells; host or cells: B-cell line CAA

| SMILES | HLA binding Stability (Table 5) (HLA-A*0201; HLA type A2, value in hours) [h] | Peptide Binding Stability (HLA-A*0201; HLA-A*0201, p53 peptides) [h] | Proteasomal Cleavage of C-terminus, IP (RMA) [1] | Proteasomal Cleavage of C-terminus, IP (JY) [2] | Proteasomal Cleavage of C-terminus, HH (HeLa) [3] | Peptide Binding Affinity (HLA-A*2401 [4]) | Peptide Binding Stability (HLA-A*2401 [5]) | HLA binding Affinity (Table 5) (HLA-A*2401 [4]; HLA type A24) | HLA binding Stability (Table 5) (HLA-A*2401 [5]; HLA type A24) | HLA binding Stability (Table 5) (HLA-A*0101; HLA type A1) | Peptide Binding Stability (HLA-A*0101; HLA-A*0101, IC50 at 20° C. vs 4° C.) |
| --- | --- | --- | --- | --- | --- | --- | --- | --- | --- | --- | --- |
| CC(C)C[C@H](NC(=O)[C@@H](N)Cc1ccccc1)C(=O)N[C@@H](Cc1c[nH]cn1)C(=O)N[C@@H](CO)C(=O)NCC(=O)N[C@H](C(=O)N[C@@H](C)C(=O)N[C@@H](CCCCN)C(=O)N[C@@H](CO)C(=O)N[C@H](C(=O)O)C(C)C)[C@@H](C)O [p53 113-122] | 6 | 6 | + (Major cleavage sites are defined as more than >1% of total digested peptide within the first hour) | + (Major cleavage sites are defined as more than >1% of total digested peptide within the first hour) | + (Major cleavage sites are defined as more than >1% of total digested peptide within the first hour) |  |  |  |  |  |  |
| CC(C)C[C@H](NC(=O)[C@H](CCCNC(=N)N)NC(=O)[C@H](Cc1ccccc1)NC(=O)CNC(=O)[C@H](Cc1ccc(O)cc1)NC(=O)[C@H](CO)NC(=O)CNC(=O)[C@H](CCC(N)=O)NC(=O)[C@H](Cc1ccc(O)cc1)NC(=O)[C@@H](N)[C@@H](C)O)C(=O)O [p53 102-111] |  |  | + (Major cleavage sites are defined as more than >1% of total digested peptide within the first hour) | + (Major cleavage sites are defined as more than >1% of total digested peptide within the first hour) | + (Major cleavage sites are defined as more than >1% of total digested peptide within the first hour) | high | + (Stable peptides displayed IC50 at 20 °C that deviated <2 times of the IC50 at 4° C.) |  |  |  |  |
| CC(C)C[C@H](NC(=O)[C@H](CCCNC(=N)N)NC(=O)[C@H](Cc1ccccc1)NC(=O)CNC(=O)[C@H](Cc1ccc(O)cc1)NC(=O)[C@@H](N)CO)C(=O)NCC(=O)N[C@@H](Cc1ccccc1)C(=O)O [p53 106-113] |  |  | + (Major cleavage sites are defined as more than >1% of total digested peptide within the first hour) | + (Major cleavage sites are defined as more than >1% of total digested peptide within the first hour) | + (Major cleavage sites are defined as more than >1% of total digested peptide within the first hour) | high | + (Stable peptides displayed IC50 at 20 °C that deviated <2 times of the IC50 at 4° C.) |  |  |  |  |
| CC(C)C[C@H](NC(=O)[C@H](CC(C)C)NC(=O)[C@H](CCCCN)NC(=O)[C@H](Cc1c[nH]c2ccccc12)NC(=O)[C@H](CC(C)C)NC(=O)[C@H](CC(=O)O)NC(=O)[C@H](CO)NC(=O)[C@H](Cc1ccccc1)NC(=O)[C@@H](N)[C@@H](C)O)C(=O)O [p53 18-26] |  |  | + (Major cleavage sites are defined as more than >1% of total digested peptide within the first hour) | + (Major cleavage sites are defined as more than >1% of total digested peptide within the first hour) | + (Major cleavage sites are defined as more than >1% of total digested peptide within the first hour) | high | + (Stable peptides displayed IC50 at 20 °C that deviated <2 times of the IC50 at 4° C.) |  |  |  |  |
| CC(C)C[C@H](NC(=O)[C@H](Cc1ccccc1)NC(=O)CNC(=O)[C@H](CC(C)C)NC(=O)[C@H](CCCNC(=N)N)NC(=O)[C@H](Cc1ccccc1)NC(=O)CNC(=O)[C@H](Cc1ccc(O)cc1)NC(=O)[C@@H](N)CO)C(=O)O [p53 106-114] |  |  | + (Major cleavage sites are defined as more than >1% of total digested peptide within the first hour) | + (Major cleavage sites are defined as more than >1% of total digested peptide within the first hour) | + (Major cleavage sites are defined as more than >1% of total digested peptide within the first hour) | high | +/− (Peptides that displayed IC50 at 20 °C of more than twice the IC50 at 4 °C but IC50 < 15 μM were considered to bind with intermediate stability.) | high | +/− (Peptides that displayed IC50 at 20 °C of more than twice the IC50 at 4 °C but IC50 < 15 μM were considered to bind with intermediate stability.) |  |  |
| CC(C)C[C@H](NC(=O)[C@H](CC(N)=O)NC(=O)CNC(=O)[C@H](CCC(=O)O)NC(=O)[C@@H](NC(=O)[C@@H](N)CCCNC(=N)N)C(C)C)C(=O)N[C@@H](CCCNC(=N)N)C(=O)N[C@H](C(=O)N[C@@H](CCC(=O)O)C(=O)N[C@@H](Cc1ccc(O)cc1)C(=O)O)C(C)C [p53 196-205] |  |  |  |  |  |  |  |  |  | + (Stable peptides displayed IC50 at 20 °C that deviated <2 times of the IC50 at 4° C.) | + (Stable peptides displayed IC50 at 20 °C that deviated <2 times of the IC50 at 4° C.) |
